Laboratory results as given in US9809550B2, “Quinolyl hydrazones for the treatment of tuberculosis and related diseases” (TECNIMEDE SOCIEDADE TECNICO-MEDICINAL S.A., priority 2012, dated 2017).

Tested on: Mycobacterium smegmatis
Assay: In vitro Mycobacterium smegmatis growth inhibition assay (suspension turbidity)
Type: cell-based
Conditions: for Inhibitory activity against Mycobacterium smegmatis growth, in words, compared with RMP: versus active control RMP; for IC50: Mycolicibacterium smegmatis, four parameter curve fit of the 96 hours growth data, read-out: IC50 (concentration to inhibit 50% of the Mycobacterium smegmatis growth)

Compound: 3,5-dibromo-2-hydroxybenzaldehyde (2-pyridinyl)hydrazine [Compound no. 42]
- Inhibitory activity against Mycobacterium smegmatis growth, in words, compared with RMP: superior inhibitory activity

Compound: Oc1ccc(Br)cc1C=NNc1ccc2ccccc2n1 [Compound no. 76, 5-bromo-2-hydroxybenzaldehyde 2-quinolinylhydrazone]
- IC50: 16.2 µM
- % of Celular Growth at 96 hours (concentration 1.23 uM): 118.35%
- % of Celular Growth at 96 hours (concentration 3.70 uM): 113.44%
- % of Celular Growth at 96 hours (concentration 11.11 uM): 121.72%
- % of Celular Growth at 96 hours (concentration 33.33 uM): 43.92%
- % of Celular Growth at 96 hours (concentration 100.00 uM): 51.50%
- Inhibitory activity against Mycobacterium smegmatis growth, in words, compared with RMP: better IC50 values than RMP

Compound: Cc1cc(NN=Cc2ccccc2O)nc2ccccc12 [Compound no. 77, 2-hydroxybenzaldehyde-(4-methyl-2-quinolinyl)hydrazone]
- IC50: 6.59 µM
- % of Celular Growth at 96 hours (concentration 1.23 uM): 77.17%
- % of Celular Growth at 96 hours (concentration 3.70 uM): 57.42%
- % of Celular Growth at 96 hours (concentration 11.11 uM): 29.14%
- % of Celular Growth at 96 hours (concentration 33.33 uM): 22.41%
- % of Celular Growth at 96 hours (concentration 100.00 uM): 34.09%
- Inhibitory activity against Mycobacterium smegmatis growth, in words, compared with RMP: better IC50 values than RMP
